Test results: publication PMC5339268, “Ganoderic Acid A Metabolites and Their Metabolic Kinetics” (Frontiers in Pharmacology, 2017)
Like-named read-outs stand apart in the source and are kept apart here. Each block holds one molecule with its values, some of them ahead of it.

Columns and labels:
[1] = system: rat liver microsomes (RLMs)
Procedure: (§2) For in vitro metabolites identification, the enzyme incubation was performed in a medium containing 1.0 mg protein /ml RLMs or HLMs, 100 μM of GAA, 3.3 mM of MgCl2, 3.0 mM of NADPH, 3.0 mM of UDPGA and 100 mM of sodium phosphate buffer (pH 7.4). The total volume was 500 μl. The metabolism reaction was initiated by adding NADPH and UDPGA after 10 min preincubation at 37°C. The reaction was maintained at 37°C for 1 h and terminated by adding with 500 μl of ice-cold acetonitrile. The mixture was centrifuged at 20,000 g for 15 min, and 10 μl of the supernatant was directly injected for HPLC-DAD-MS/MS assay. Control samples were prepared as described above by using inactivated enzymes in the incubation system. Each of the incubations was performed in duplicate.
(§3) The identification of metabolites were conducted by a HPLC-DAD-MS/MS system equipped with an Agilent 1,260 HPLC system (Agilent Technologies, Santa Clara, CA, USA), 1,260 diode array detector (DAD) and 4,500 Q-Trap mass spectrometer with electrospray ionization source (AB SCIEX, Framingham, MA, USA). Chromatographic separation was performed on a C18 column (100 × 4.6 mm, 2.4 μm, BDS hypersil, Thermo, PA) maintained at 40°C. The mobile phase consisted of acetonitrile (A) and 0.1% formic acid aqueous solution (B) with following gradient elution at a flow rate of 0.40 ml/min: 0–10 min, 20–35% A; 10–20 min, 35% A; 20–25 min, 35–65% A; 25–30 min, 65% A; 30–35 min, 65–20% A; and 35–45 min, 20% A. The DAD spectral data was collected from 190 to 400 nm. The injection volume of all the tested samples was 10 μl. Mass data were acquired in negative mode under the following conditions, ion spray voltage −4,500 V, ion source temperature 450°C, curtain gas 10 psi, nebulizer gas 60 psi and auxiliary gas 60 psi. Data were collected using Analyst 1.6.2 (Applied Biosystems) in both first quadrupole (Q1) mass scan mode and multiple reaction monitoring (MRM) independent data acquisition (IDA) mode using enhanced product ion scans (EPI) and enhanced resolution (ER) in the ion trap mode.

[2] = GAA metabolite identification in rat bile, plasma and urine after intravenous administration (HPLC-DAD-MS/MS); conditions: for Detected resource 1, rat bile: rat bile 0–4 h after i.v. GAA 20 mg/kg; for Detected resource 2, rat plasma: rat plasma 5 and 30 min after i.v. GAA 20 mg/kg; for Detected resource 3, rat urine: rat urine 0–4 h after i.v. GAA 20 mg/kg
Procedure: Male Sprague-Dawley rats (200 ± 20 g) were supplied by Beijing Vital Laboratory Animal Technology (Beijing, China). The animal experiment was approved by the Animal Ethics Committee at the Institute of Medicinal Plant Development, Chinese Academy of Medical Sciences. […] On the day before the experiment, the rats were suffered with light surgeries. Under anesthesia by an intraperitoneal dose of 10% chloral hydrate at 3.50 ml/kg, a polyethylene catheter (0.50 mm ID, 1.00 mm OD, Portex Limited, Hythe, Kent, England) was cannulated into the right jugular vein for intravenous drug administration and blood collection, and another catheter (0.28 mm ID, 0.61 mm OD, Portex Limited, Hythe, Kent, England) was cannulated into the bile fistul for bile collection. After surgery, the rats were placed individually in metabolism cages and allowed to recover for at least 24 h. The rats were fasted over night with free access to water prior to drug administration.
GAA (25 mg) was dissolved in 500 μl of physiological saline containing 2% sodium carbonate and diluted with physiological saline to make the volume of 5 ml (Cheng C.-R. et al., [2013]). The solution was given to rats (n = 5) intravenously at 20 mg/kg through the jugular vein catheter. After dosing and blood sample collection, 0.2 ml of normal saline with 20 units of heparin was injected into the body through the catheter to flush the catheter and prevent blood coagulation.
Rats were held in metabolism cages, blood was collected into heparinized tubes from the jugular vein before (blank) and at 5 and 30 min post dosing, and then centrifuged at 1,500 g for 10 min for plasma separation. At the same time, bile and urine samples were collected before (blank) and over the period of 0–4 h post dosing. All of the collected blank plasma, blank bile, blank urine, dosing plasma, dosing bile or dosing urine from five rats were pooled together respectively and stored at −20°C until assay.
For plasma, an aliquot of 200 μl sample was mixed with 20 μl HCl solution (1 M), and then extracted with 1.5 ml of ethyl acetate by vortex-mixing for 10 min. The ethyl acetate layer was collected and concentrated to dryness by a vacuum concentrator. The residue was reconstituted in 100 μl 80% methanol and centrifuged at 20,000 g for 15 min. The supernatant was collected for HPLC-DAD-MS/MS assay. For bile, an aliquot of 150 μl sample was mixed with 150 μl 80% methanol and 10 μl 5% formic acid, and then centrifuged at 20,000 g for 15 min. The supernatant was collected for HPLC-DAD-MS/MS assay. For urine, an aliquot of 2 ml sample was loaded on a pretreated ODS-C18 cartridge (Agilent AccuBOND, 500 mg). After washing with 5 ml of water, the cartridge was eluted with 10 ml of methanol. The methanol eluate was collected and concentrated to dryness by a vacuum concentrator at 37°C. The residue was reconstituted in 200 μl 80% methanol and centrifuged at 20,000 g for 15 min, and the supernatant was collected for HPLC-DAD-MS/MS assay.
The identification of metabolites were conducted by a HPLC-DAD-MS/MS system equipped with an Agilent 1,260 HPLC system (Agilent Technologies, Santa Clara, CA, USA), 1,260 diode array detector (DAD) and 4,500 Q-Trap mass spectrometer with electrospray ionization source (AB SCIEX, Framingham, MA, USA). Chromatographic separation was performed on a C18 column (100 × 4.6 mm, 2.4 μm, BDS hypersil, Thermo, PA) maintained at 40°C. The mobile phase consisted of acetonitrile (A) and 0.1% formic acid aqueous solution (B) with following gradient elution at a flow rate of 0.40 ml/min: 0–10 min, 20–35% A; 10–20 min, 35% A; 20–25 min, 35–65% A; 25–30 min, 65% A; 30–35 min, 65–20% A; and 35–45 min, 20% A. The DAD spectral data was collected from 190 to 400 nm. The injection volume of all the tested samples was 10 μl. Mass data were acquired in negative mode under the following conditions, ion spray voltage −4,500 V, ion source temperature 450°C, curtain gas 10 psi, nebulizer gas 60 psi and auxiliary gas 60 psi.

[3] = system: human liver microsomes (HLMs)
Procedure: as §2, §3

EL4 syngeneic mice = system: EL4 syngeneic mice; parameters: method as in Radwan et al., 2015; conditions: ref Radwan et al., 2015, cited from earlier work
[4] = system: human liver microsomes (HLMs); assay: In vitro metabolite identification, GAA incubated with HLMs; conditions: for Detected resource 5, HLMs: 100 μM GAA, 1.0 mg protein/ml HLMs, NADPH and UDPGA, 37°C, 1 h
Procedure: as §2, §3

HepG2 cells = system: HepG2 cells; parameters: method as in Yao et al., 2012; conditions: ref Yao et al., 2012; cited from earlier work
[5] = system: rat liver microsomes (RLMs); assay: In vitro metabolite identification, GAA incubated with RLMs; conditions: for Detected resource 4, RLMs: 100 μM GAA, 1.0 mg protein/ml RLMs, NADPH and UDPGA, 37°C, 1 h
Procedure: as §2, §3

[6] = system: rat liver microsomes (RLMs); assay: Formation kinetics of the metabolites M2 and M4 in RLMs; type: in vitro ADME
Procedure: Each of the incubations was performed in triplicate.

[7] = system: human liver microsomes (HLMs); conditions: for Vmax of metabolite formation from GAA: HLMs 0.25 mg protein/ml, GAA 1–50 μM, 30 min
Procedure: The formation kinetics of the two main reduction metabolites M2 (GAC2) and M4 (7β,15-dihydroxy-3,11,23-trioxo-lanost-26-oic acid) were determined. The incubations were performed in a medium (100 μl) containing 0.25 mg protein /ml RLMs or HLMs, different concentrations of GAA (1–50 μM), 3.3 mM of MgCl2, 3.0 mM of NADPH and 100 mM of sodium phosphate buffer (pH 7.4). After 10 min of preincubation, GAA at each concentration was incubated with RLMs and HLMs for 5 and 30 min, respectively. The reactions were terminated by adding with 100 μl of ice-cold acetonitrile containing 2 μM GLA used as internal standard (IS). After centrifugation, metabolites in the mixture were analyzed by UFLC-MS/MS detection as described below. The metabolite formation rates vs. GAA concentrations were plotted to obtain the Michaelis-Menten constant (Km) and maximum velocity (Vmax) values of the metabolic reactions. Each of the incubations was performed in triplicate.
The kinetic parameters of GAA metabolism by RLMs or HLMs were calculated by fitting the data to the hyperbolic Michaelis-Menten model: V=Vmax×[S]/Km+[S]
Where Vmax is the maximal velocity of formation, S is the concentration of substrate, Km is the substrate concentration of half maximal velocity, and the intrinsic clearance (CLint) is calculated as Vmax/Km.

CYP3A [8] = assay: Effect of CYP inhibitors on formation of GAA metabolites in HLMs; type: in vitro ADME; conditions: human, human liver microsomes (HLMs), probe GAA (10 μM), ketoconazole 10 μM
Procedure: (§1) GAA (10 μM) was incubated with 0.25 mg/ml RLMs or HLMs in the incubation system as described in Section Formation Kinetics of the Metabolites M2 and M4, in the present or absent of the following CYP enzymes inhibitors, 10 μM α- naphthoflavone (for CYP1A2), 100 μM ticlopidine (for CYP2C19), 10 μM quinidine (for CYP2D), 10 μM ketoconazole (for CYP3A), 100 μM fluconazole (for CYP2C9) and 100 μM diethyldithiocarbamate (for CYP2E1), respectively. The M2 and M4 formation rates in the present and absent of inhibitors were compared. The percentage of inhibition was calculated. Each of the incubations was performed in triplicate.

CYP3A [9] = assay: Effect of CYP inhibitors on formation of GAA metabolites in RLMs; type: in vitro ADME; conditions: rat, rat liver microsomes (RLMs), probe GAA (10 μM), formation of metabolite M2, RLMs 0.25 mg/ml, ketoconazole 10 μM
Procedure: as §1

Structure (SMILES): CC(CC(=O)CC(C)C1CC(O)C2(C)C3=C(C(=O)C(O)C12C)C1(C)CCC(O)C(C)(C)C1CC3O)C(=O)O (stereo not shown) [Metabolite M15, 12-hydroxy ganoderic acid C2]
metabolite found in RLMs incubations [1]: detected

Structure (SMILES): CC(CC(=O)C[C@@H](C)[C@H]1C[C@H](O)[C@@]2(C)C3=C(C(=O)C[C@]12C)[C@@]1(C)CCC(=O)C(C)(C)[C@@H]1CC3=O)C(=O)O (stereo partly shown) [Metabolite M7, Ganoderic acid J]
Detected resource 1, rat bile [2]: +
Detected resource 2, rat plasma [2]: +
Detected resource 3, rat urine [2]: +

Structure (SMILES): CC(CC(=O)CC(C)C1CC(O)C2(C)C3=C(C(=O)C(O)C12C)C1(C)CCC(=O)C(C)(C)C1CC3O)C(=O)O (stereo not shown) [Metabolite M9, 12-hydroxy ganoderic acid A]
metabolite detected in HLMs incubations [3]: detected
metabolite found in RLMs incubations [1]: found

Structure (SMILES): C[C@H](CC(=O)C[C@@H](C)[C@H]1C[C@H](O)[C@@]2(C)C3=C(C(=O)C[C@]12C)[C@@]1(C)CCC(=O)C(C)(C)[C@@H]1C[C@@H]3O)C(=O)O [Metabolite M0, Ganoderic acid A]
tumor metastasis to the liver (EL4 syngeneic mice; EL4 syngeneic mice): decrease tumor metastasis to the liver
survival of EL4 syngeneic mice (EL4 syngeneic mice): significantly prolong the survival
Detected resource 1, rat bile [2]: +
Detected resource 2, rat plasma [2]: +
Detected resource 3, rat urine [2]: +
Detected resource 5, HLMs [4]: +
chemosensitivity of HepG2 cells to Cisplatin (HepG2 cells): enhance chemosensitivity
Detected resource 4, RLMs [5]: +

Structure (SMILES): CC(CC(=O)CC(C)C1CC(O)C2(C)C3=C(C(=O)CC12C)C1(C)CCC(=O)C(C)(CO)C1CC3O)C(=O)O (stereo not shown) [Metabolite M35, 28(29)-hydroxy ganoderic acid A]
metabolite detected in HLMs incubations [3]: detected

Structure (SMILES): CC(CC(=O)C[C@@H](C)[C@H]1CC(=O)[C@@]2(C)C3=C(C(=O)C[C@]12C)[C@@]1(C)CC[C@H](O)C(C)(C)[C@@H]1C[C@@H]3O)C(=O)O (stereo partly shown) [Metabolite M18, Ganoderic acid B]
Detected resource 1, rat bile [2]: +
Detected resource 2, rat plasma [2]: +

Structure (SMILES): C[C@H](CC(=O)C[C@@H](C)[C@H]1C[C@H](O)[C@@]2(C)C3=C(C(=O)C[C@]12C)[C@@]1(C)CCC(=O)C(C)(C)[C@@H]1C[C@@H]3O[C@@H]1O[C@H](C(=O)O)[C@@H](O)[C@H](O)[C@H]1O)C(=O)O [Metabolite M28, Ganoderic acid A 7-O-glucuronide]
Detected resource 1, rat bile [2]: +
Detected resource 2, rat plasma [2]: +
Detected resource 3, rat urine [2]: +
Detected resource 5, HLMs [4]: +
metabolite detected in HLMs incubations ([4]; HLMs incubations): detected
Detected resource 4, RLMs [5]: +
metabolite found in RLMs incubations [5]: found

Detected resource 1, rat bile [2]: +
Structure (SMILES): C[C@H](CC(=O)C[C@@H](C)[C@H]1C[C@H](O)[C@@]2(C)C3=C(C(=O)C[C@]12C)[C@@]1(C)CC[C@H](O)C(C)(C)[C@@H]1C[C@@H]3O[C@@H]1O[C@H](C(=O)O)[C@@H](O)[C@H](O)[C@H]1O)C(=O)O [Metabolite M26, Ganoderic acid C2 7-O-glucuronide]

Structure (SMILES): C[C@H](CC(=O)C[C@@H](C)[C@H]1C[C@H](O)[C@@]2(C)C3=C(C(=O)C[C@]12C)[C@@]1(C)CC[C@H](O)C(C)(C)[C@@H]1C[C@@H]3O)C(=O)O [Metabolite M2, Ganoderic acid C2]
metabolite detected in HLMs incubations [3]: detected
relative abundance of metabolite in HLMs incubations [3]: abundant
relative abundance of metabolite in RLMs incubations [1]: most abundant
Vmax of metabolite formation from GAA ([6]; RLMs 0.25 mg protein/ml, GAA 1–50 μM, 5 min): 185.81 pmol/min/mg
CLint by RLMs higher than by HLMs ([6]; ratio RLMs vs HLMs): 20 fold
Vmax by RLMs higher than by HLMs ([6]; ratio RLMs vs HLMs): 6 fold
Vmax of metabolite formation from GAA [7]: 30.18 pmol/min/mg
Clint of metabolite formation from GAA (Vmax/Km) ([7]; human, pH 7.4): 0.33 µL/min/mg
Km of M2 higher than that of M4 ([7]; in HLMs, ratio M2 vs M4): 15 fold
Km by HLMs higher than by RLMs ([7]; ratio HLMs vs RLMs): approximately 3 fold

Detected resource 1, rat bile [2]: +
Detected resource 4, RLMs [5]: +
metabolite found in RLMs incubations [5]: detected
Structure (SMILES): C[C@H](CC(=O)C[C@@H](C)[C@H]1C[C@H](O)[C@@]2(C)C3=C(C(=O)C[C@]12C)[C@@]1(C)CC[C@H](O[C@@H]2O[C@H](C(=O)O)[C@@H](O)[C@H](O)[C@H]2O)C(C)(C)[C@@H]1C[C@@H]3O)C(=O)O [Metabolite M25, Ganoderic acid C2 3-O-glucuronide]

Structure (SMILES): CC(=O)N1CCN(c2ccc(OCC3COC(Cn4ccnc4)(c4ccc(Cl)cc4Cl)O3)cc2)CC1 (stereo not shown) [Ketoconazole, ketoconazole]
inhibition at 10 μM (CYP3A [8]; formation of metabolite M2, HLMs 0.25 mg/ml, read-out: inhibition of the formation of M2 in HLMs): 56%
inhibition at 10 μM (CYP3A [8]; formation of metabolite M4, HLMs 0.25 mg/ml, read-out: inhibition of the formation of M4 in HLMs): 38.2%
inhibition at 10 μM (CYP3A [9]): 19.9%

Detected resource 1, rat bile [2]: +
Structure (SMILES): C[C@H](CC(=O)C[C@@H](C)[C@H]1C[C@H](O[C@@H]2O[C@H](C(=O)O)[C@@H](O)[C@H](O)[C@H]2O)[C@@]2(C)C3=C(C(=O)C[C@]12C)[C@@]1(C)CC[C@H](O)C(C)(C)[C@@H]1C[C@@H]3O)C(=O)O [Metabolite M27, Ganoderic acid C2 15-O-glucuronide]

Structure (SMILES): CC(CC(=O)CC(C)C1CC(O)C2(C)C3C(O)CC4C(C)(C)C(=O)CCC4(C)C3C(=O)CC12C)C(=O)O (stereo not drawn) [Metabolite M4, 7β,15-dihydroxy-3,11,23-trioxo-lanost-26-oic acid]
metabolite detected in HLMs incubations [3]: detected
relative abundance of metabolite in HLMs incubations [3]: abundant
metabolite found in RLMs incubations [1]: undetected
Vmax of metabolite formation from GAA [7]: 29.70 pmol/min/mg
CLint of M4 formation higher than that of M2 ([7]; human, pH 7.4): 15 fold
Clint of metabolite formation from GAA (Vmax/Km) ([7]; human, pH 7.4): 4.85 µL/min/mg

Structure (SMILES): C[C@H](CC(=O)C[C@@H](C)[C@H]1C[C@H](O[C@@H]2O[C@H](C(=O)O)[C@@H](O)[C@H](O)[C@H]2O)[C@@]2(C)C3=C(C(=O)C[C@]12C)[C@@]1(C)CCC(=O)C(C)(C)[C@@H]1C[C@@H]3O)C(=O)O [Metabolite M30, Ganoderic acid A 15-O-glucuronide]
Detected resource 1, rat bile [2]: +
Detected resource 3, rat urine [2]: +

Structure (SMILES): CC(CC(=O)CC(C)(O)C1CC(O)C2(C)C3=C(C(=O)CC12C)C1(C)CCC(=O)C(C)(C)C1CC3O)C(=O)O (stereo not shown) [Metabolite M11, 20-hydroxy ganoderic acid A]
metabolite detected in HLMs incubations [3]: detected
metabolite found in RLMs incubations [1]: found

Detected resource 1, rat bile [2]: +
Detected resource 2, rat plasma [2]: +
Detected resource 3, rat urine [2]: +
Structure (SMILES): CC(CC(=O)C[C@@H](C)[C@H]1CC(O)[C@@]2(C)C3=C(C(O[C@@H]4O[C@H](C(=O)O)[C@@H](O)[C@H](O)[C@H]4O)C[C@]12C)[C@@]1(C)CCC(=O)C(C)(C)[C@@H]1CC3=O)C(=O)O (stereo partly shown) [Metabolite M29, 15-hydroxy-3,7,23-trioxo-lanost-8-en-26-oic acid-11-O-glucuronide]

Structure (SMILES): CC(CC(=O)CC(C)C1CC(O)C2(C)C3=C(C(=O)CC12C)C1(C)CCC(O)C(C)(CO)C1CC3O)C(=O)O (stereo not drawn) [Metabolite M13, 3,7β,15,28(29)-tetrahydroxy-11, 23-dioxo-lanost-8-en-26-oic acid]
metabolite found in RLMs incubations [1]: detected

Detected resource 1, rat bile [2]: +
Detected resource 3, rat urine [2]: +
Structure (SMILES): CC(CC(=O)C[C@@H](C)[C@H]1CC(O[C@@H]2O[C@H](C(=O)O)[C@@H](O)[C@H](O)[C@H]2O)[C@@]2(C)C3=C(C(O)C[C@]12C)[C@@]1(C)CCC(=O)C(C)(C)[C@@H]1CC3=O)C(=O)O (stereo partly shown) [Metabolite M31, 11-hydroxy-3,7,23-trioxo-lanost-8-en-26-oic acid-15-O-glucuronide]
